Laboratory results reported in patent publication US20250360116A1, “PICOLINIC-2-CARBOXAMIDE HYBRIDIZED WITH ANTHRAQUINONE DERIVATIVES, METHODS OF PREPARATION, AND A PHARMACEUTICAL COMPOSITION COMPRISING THE SAME” (AL-ZAYTOONAH UNIVERSITY OF JORDAN, priority 2023, published 2025).
Marks after values point to notes of the source that are not given here.

Tested on: Triton WR-1339 induced hyperlipidemic Wistar Rats
Assay: Plasma lipid levels in triton WR-1339 induced hyperlipidemia in rats
Type: in vivo
Conditions: for HDL-C (plasma) / LDL-C (plasma) / TC (plasma) / TG (plasma): 20 mg/kg intragastric after triton WR-1339 200 mg/Kg i.p., about 6 hours, mean ± SEM, five rats; for Effect on elevated TC levels / Effect on elevated plasma LDL-C levels / Effect on elevated plasma TG levels / Effect on plasma HDL-C levels: in words, in comparison with HCG, 20 mg/kg intragastric, 6 hours
Procedure: The study was conducted on twenty-five adult male Wistar Rats weighting 200±10 g. Wistar Rats were bred in the animal care center of Faculty of Pharmacy in Al-Zaytoonah University of Jordan. The animals were kept on 12 hours' light/dark cycle, at room temperature (25±1° C.) with free access to food and water. The rats were divided randomly into five groups each consist of five rats, whereby Group I was the normal control group (“NCG”) that received an intraperitoneal administration of normal saline, Group II was the hyperlipidemic control group (“HCG”) that received an intraperitoneal injection of about 200 mg/Kg triton WR-1339 dissolved in about 4% dimethylsulfoxide (“DMSO”)/corn oil, Groups (III, IV, V) rats received intraperitoneal injection of about 200 mg/Kg triton WR-1339.
After about 6 hours of treatment, the rats were anaesthetized with diethyl ether and blood was collected. The blood samples were immediately centrifuged at about 3000 rpm for about 10 minutes and the serum was used for lipid profile measurements (TG, LDL-C, TC and HDL-C) by an automated chemistry analyzer (Model Erba XL-300, Mannheim, Germany). Furthermore, liver samples were collected, and then kept in liquid nitrogen, and stored at (−80° C.) for the mRNA extraction as described in Example 5 below.
The plasma of TG, TC, LDL-C and HDL-C levels in HCG treated at 6 hours after administration of triton WR-1339 are shown in FIG. 2.
After the injection of Wistar Rats with Triton WR-1339 in Example 3, Groups III, IV, V received an intragastric administration of (20 mg/kg by weight) of compounds C1, C2 and C3, respectively, dissolved in about 4% DMSO/corn oil. FIGS. 3, 4, 5, 6 illustrate bar charts showing the effect of the compounds C1, C2, and C3 on the Triton WR-1339 induced hyperlipidemic Wistar Rats after about 6 hours of treatment on TG, TC, LDL-C, and HDL-C.

| SMILES | HDL-C (plasma) | LDL-C (plasma) | TC (plasma) | TG (plasma) | Effect on elevated TC levels | Effect on elevated plasma LDL-C levels | Effect on elevated plasma TG levels | Effect on plasma HDL-C levels |
| --- | --- | --- | --- | --- | --- | --- | --- | --- |
| O=C(Nc1cccc2c1C(=O)c1ccccc1C2=O)c1ccccn1 [Compound C1, N-(9,10-dioxo-9,10-dihydroanthracen-1-yl) picolinamide] | 56 ± 4.6 ^b mg/dl | 6 ± 0.7 ^b mg/dl | 42 ± 10 ^b mg/dl | 145 ± 14.2 ^b mg/dl | significantly decreased | significantly lowered | significantly decreased | significantly increased |
| O=C(Nc1ccc2c(c1)C(=O)c1ccccc1C2=O)c1ccccn1 [Compound C2, N-(9,10-dioxo-9,10-dihydroanthracen-2-yl) picolinamide] | 38 ± 4.4 ^a mg/dl | 9 ± 0.6 ^a mg/dl | 75 ± 15.2 ^a mg/dl | 985 ± 15.3 ^a mg/dl | significantly decreased | significantly lowered | significantly decreased | significantly increased |
| O=C(Nc1ccc(O)c2c1C(=O)c1ccccc1C2=O)c1ccccn1 [Compound C3, N-(4-hydroxy-9,10-dioxo-9,10-dihydroanthracen-1-yl) picolinamide] | 22 ± 2 mg/dL | 11 ±1.2 ^ mg/dl | 122 ± 11 mg/dL | 1375 ± 23 mg/dL | non-significant effect | non-significant effect | non-significant effect | non-significant effect |
